*1 amine or outer side, *2 acyl side, *3 side chain or, on linkers, in order; H or OH if unused. Where no end group is shown, it is not given here. Suc = O=C(CCC(=O)[*:2])[*:1]
Test system: Aβ induced oxidative stress in the rat brain
Experiment: Oxidative stress markers (MDA, GSH, SOD) in brains of Aβ treated non-diabetic and diabetic rats
Format: in vivo, Sprague-Dawley rats
Conditions: for Brain malondialdehyde (MDA) level: IRL-1620 3 μg i.c.v. daily 14 days
Procedure: Male Sprague-Dawley rats (Harlan, Indianapolis, Ind.) weighing 280-310 g were allowed to acclimate for at least 4 days before use. Animals were housed in a room with controlled temperature (23±1° C.), humidity (50±10%), and light (6:00 A.M. to 6:00 P.M.). Food and water were available continuously. Animal care and use for experimental procedures were approved by the Institutional Animal Care and Use Committee (IACUC) of Midwestern University. All anesthetic and surgical procedures were in compliance with the guidelines established by the IACUC of Midwestern University.
Amyloid-β (1-40) (Tocris Bioscience, Ellisville, Mo., USA), IRL-1620 [N-Succinyl-[Glu9, Ala11,15] endothelin 1] (American Peptide Co, Inc., Sunnyvale, Calif., USA) and BQ788 (American Peptide Co, Inc., Sunnyvale, Calif., USA) were dissolved in sterile saline and all the solutions were freshly prepared before injections. Ketamine (Butler Animal Health Supply, Dublin, Ohio, USA) was administered at a dose of 100 mg/kg, intraperitoneally (i.p.), and xylazine (Lloyd Laboratories, Shenandoah, Iowa, USA) was administered at a dose of 10 mg/kg, i.p. Rats were anesthetized with ketamine (100 mg/kg) and xylazine (10 mg/kg) and a lateral cerebral ventricle was cannulated by placing the rat in a stereotaxic (David Kopf Instruments, Tujunga, Calif., USA) instrument and fixing the cannula (coordinates: 1.0 mm lateral, 1.5 mm caudal to bregma and 4.0 mm deep from the bone). Cannula (Plastics One, Roanoke, Va., USA) was anchored with dental acrylic to three screws placed in the skull. The animals were allowed to recover from surgery for at least seven days. After 7 days, rats were treated with vehicle, Aβ (1-40), ETB receptor agonist and/or antagonist in the lateral cerebral ventricles using the implanted cannula. Vehicle, Aβ or ETB receptor agonist and antagonist were injected in a volume of 5 μl over a period of 5 minutes. Aβ (1-40) was used because it is highly soluble compared to Aβ (1-42) and induces endothelial dysfunction of both cerebral and systemic blood vessels in addition to memory deficit (Nitta et al., 1994; Niwa et al., 2000; Smith et al., 2004; Weller et al., 1998). Agents were delivered using 10 μl Hamilton syringe and agent treatments were carried out individually using separate 10 μl syringe. IRL-1620 was administered 1 hour after Aβ injection whereas BQ788 was administered 15 minutes prior to IRL-1620 injection. At the end of the experiment, placement of cannula was confirmed by injecting methylene blue dye (5 μl) and observing the site and extent of staining. All experiments were performed on day 15 (Briyal et al., 2011). Water maze testing was performed from day 15 to day 19 after which animals were euthanized. Animals used for oxidative stress measurements were euthanized on day 15 without being subjected to any behavioral testing. Diabetes mellitus type 2 was induced in rats belonging to the diabetic group by administering freshly prepared streptozotocin at the dose of 45 mg/kg, i.p. Streptozotocin was dissolved in 0.01 M sodium citrate buffer of pH 4.3. On day 3, blood glucose was obtained from the rat-tail and tested for hyperglycemia using the SureStep Complete Blood Glucose monitor kit. Rats with blood glucose levels above 11.1 mM were considered diabetic. Diabetic and non-diabetic animals were randomly divided into five groups (6 rats per group) (i) Sham, (ii) Aβ+Vehicle, (iii) Aβ+IRL-1620, (iv) Aβ+BQ788 (v) Aβ+BQ788+IRL-1620. Aβ (1-40) was administered intracerebroventricularly (i.c.v.) (20 μg in 3 equally divided doses i.e. 6.67 μg were injected 3 times for a total of 20 μg dose) on day 1, 7, and 14. Specific ETB receptor agonist, IRL-1620 (3 μg) and specific ETB receptor antagonist, BQ788 (10 μg) were administered i.c.v. daily for 14 days starting from day 1 of Aβ injection. The doses of IRL-1620 and BQ788 were selected on the basis of previous studies conducted in our laboratory (Leonard et al., 2011). […]

[1] = Aβ treated diabetic rats, day 15
[2] = Aβ treated non-diabetic rats, day 15

Compound | Brain malondialdehyde (MDA) level [1] [nmol/g wet tissue] | Brain reduced glutathione (GSH) level [1] [μg/g wet tissue] | Brain superoxide dismutase (SOD) level [1] [U/mg protein] | Brain malondialdehyde (MDA) level [2] [nmol/g wet tissue] | Brain reduced glutathione (GSH) level [2] [μg/g wet tissue] | Brain superoxide dismutase (SOD) level [2] [U/mg protein] | Brain superoxide dismutase (SOD) level (Aβ treated diabetic rats, pretreated with BQ788 prior to IRL-1620) [U/mg protein] | Brain superoxide dismutase (SOD) level (Aβ treated non-diabetic rats, pretreated with BQ788 prior to IRL-1620) [U/mg protein] | IRL-1620 induced change in MDA levels (Aβ treated rats, BQ788 administered prior to IRL-1620) | Brain reduced glutathione (GSH) level (Aβ treated rats, pretreatment with BQ788 before IRL-1620, diabetic status not stated) [μg/g wet tissue]
Suc-Asp-Glu-Glu-Ala-Val-Tyr-Phe-Ala-His-Leu-Asp-Ile-Ile-Trp (Suc-DEEAVYFAHLDIIW) [IRL-1620] | 315.09±5.25 | 166.42±6.63 | 21.4±1.65 | 278.47±8.55 | 192.74±6.26 | 22.26±1.16 | – | – | – | –
CCCC[C@@H](NC(=O)[C@@H](Cc1cn(C(=O)OC)c2ccccc12)NC(=O)[C@H](CC(C)(C)C)NC(=O)N1[C@H](C)CCC[C@@H]1C)C(=O)O [BQ788, reference compound] | – | – | – | – | – | – | 16.52±0.45 | 15.32±0.44 | blocked | 81.2±5.49

Source: patent publication US10561704B2, “Compositions and methods for treating neuropsychiatric disorders using an endothelin-B receptor agonist” (MIDWESTERN UNIVERSITY, priority 2013, dated 2020)
